The values below come from ChEMBL document CHEMBL1144941, “Synthesis of second-generation transition state analogues of human purine nucleoside phosphorylase” (J Med Chem, 2003).

The assay deals with T1, Purine nucleoside phosphorylase (Homo sapiens) (UniProt P00491).
T1 sequence (whole entry): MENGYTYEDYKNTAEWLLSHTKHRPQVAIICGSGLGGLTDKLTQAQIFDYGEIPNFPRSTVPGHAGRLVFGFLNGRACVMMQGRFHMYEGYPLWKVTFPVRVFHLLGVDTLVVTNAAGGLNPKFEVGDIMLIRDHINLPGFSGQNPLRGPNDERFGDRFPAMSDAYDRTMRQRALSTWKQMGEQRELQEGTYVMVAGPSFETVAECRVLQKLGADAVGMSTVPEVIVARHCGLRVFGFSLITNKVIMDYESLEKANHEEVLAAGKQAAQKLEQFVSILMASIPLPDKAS
Particulars: Urine.

As to `OC[C@H]1CN(Cc2n[nH]c3c(O)ncnc23)CC1O` (stereo partly specified), the NS result was “No slow onset”.
